Marks after values point to notes of the source that are not given here. Primed or numbered codes have the meaning given here. Peptide text beside a SMILES is read from it. * marks the point of attachment. Cholyl = C[C@H](CCC(=O)*)[C@H]1CC[C@H]2[C@@H]3[C@H](O)C[C@@H]4C[C@H](O)CC[C@]4(C)[C@H]3C[C@H](O)[C@]12C; Adp″ = aminoethyldibenzofuranylpropanoic acid, NCCc1cccc2c1oc1c(CCC(=O)*)cccc12; NMeV = CN[C@H](C(=O)O)C(C)C; CA = not defined here
How the values were obtained:
cultured neuronal cells = assay: Neurotoxicity of Aβ1-40 preparations with or without modulator (MTT), cell line not specified; format: cell-based
Protocol: The neurotoxicity of natural β-amyloid peptide aggregates, in either the presence or absence of a β-amyloid modulator, is tested in a cell-based assay using either a rat or human neuronally-derived cell line (PC-12 cells or NT-2 cells, respectively) and the viability indicator 3,(4,4-dimethylthiazol-2-yl)2,5-diphenyl-tetrazolium bromide (MTT). […] MTT (commercially available from Sigma Chemical Co.) is a chromogenic substrate that is converted from yellow to blue in viable cells, which can be detected spectrophotometrically.
To test the neurotoxicity of natural β-amyloid peptides, stock solutions of fresh Aβ monomers and aged Aβ aggregates were first prepared. […] Peptide prepared in this way and tested immediately on cells is referred to as “fresh” Aβ monomer. To prepare “aged” Aβ aggregates, peptide solution was placed in a 1.5 ml Eppendorf tube and incubated at 37° C. for eight days to allow fibrils to form. Such “aged” Aβ peptide can be tested directly on cells or frozen at −80° C. The neurotoxicity of fresh monomers and aged aggregates were tested using PC12 and NT2 cells. PC 12 cells were routinely cultured in Dulbeco's modified Eagle's medium (DMEM) containing 10% horse serum, 5% fetal calf serum, 4 mM glutamine, and 1% gentamycin. NT2 cells were routinely cultured in OPTI-MEM medium (GIBCO BRL CAT. #31985) supplemented with 10% fetal calf serum, 2 mM glutamine and 1% gentamycin. Cells were plated at 10-15,000 cells per well in 90 μl of fresh medium in a 96-well tissue culture plate 3-4 hours prior to treatment. The fresh or aged Aβ peptide solutions (10 μL) were then diluted 1:10 directly into tissue culture medium so that the final concentration was in the range of 1-10 μM peptide. Cells are incubated in the presence of peptide without a change in media for 48 hours at 37° C. For the final three hours of exposure of the cells to the β-AP preparation, MTT was added to the media to a final concentration of 1 mg/ml and incubation was continued at 37° C. Following the two hour incubation with MTT, the media was removed and the cells were lysed in 100 μL isopropanol/0.4N HCl with agitation. An equal volume of PBS was added to each well and the plates were agitated for an additional 10 minutes. Absorbance of each well at 570 nm was measured using a microtiter plate reader to quantitate viable cells.

Aβ1-40 [1] = target: T1, Aβ1-40 (Homo sapiens, UniProt P05067); assay: Nucleation assay (turbidity, A405 nm); format: biochemical; details: for ΔLag (ratio of lag time with test compound to lag time of control) / inhibition at 100 mol % / % Inucl'n (percent reduction in maximum observed turbidity): Table V; for inhibition at 100 mol %: read-out: % Inucl'n (percent reduction in maximum observed turbidity);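 for all read-outs here: synthetic Aβ monomer polymerization followed by turbidity in 96-well plates with continuous shaking, read every 15 minutes over 5 hours, compared against wells lacking test compound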
T1 construct: (β-AP1-40) was obtained commercially from Bachem (Torrance, Calif.); purchased Bachem (Torrance, Calif.)
From the text: The nucleation assay is employed to determine the ability of test compounds to alter (e.g. inhibit) the early events in formation of β-AP fibers from monomeric β-AP. […] The time delay before polymerization of β-AP monomer can be quantified as well as the extent of formation of insoluble fiber by light scattering (turbidity). Polymerization reaches equilibrium when the maximum turbidity reaches a plateau. The turbidity of a solution of natural β-AP in the absence or presence of various concentrations of a β-amyloid modulator compound is determined by measuring the apparent absorbance of the solution at 405 nm (A405 nm) over time. The threshold of sensitivity for the measurement of turbidity is in the range of 15-20 μM β-AP. […] This assay can be performed using stirring or shaking to accelerate polymerization, thereby increasing the speed of the assay. Moreover the assay can be adapted to a 96-well plate format to screen multiple compounds.
HFIP-solubilized peptide is sonicated in a waterbath sonicator for 5 mM at highest setting, then evaporated to dryness under a stream of argon. The peptide film is resuspended in anhydrous dimethylsulfoxide (DMSO) at a concentration of 6.9 mg/ml (25× concentration), sonicated for 5 mM as before, then filtered through a 0.2 micron nylon syringe filter (VWR cat. No. 28196-050). Test compounds are dissolved in DMSO at a 100× concentration. […] Ten microliters of the mixture is then added to the bottom of a well of a Corning Costar ultra low binding 96-well plate (Corning Costar, Cambridge Mass.; cat. No. 2500). Ninety microliters of water is added to the well, the plate is shaken on a rotary shaken at a constant speed at room temperature for 30 seconds, an additional 100 μl of 2×PTL buffer (20 mM NaH2PO4, 300 mM NaCl, pH 7.4) is added to the well, the plate is reshaken for 30 seconds and a baseline (t=0) turbidity reading is taken by measuring the apparent absorbance at 405 nm using a Bio-Rad Model 450 Microplate Reader. The plate is then returned to the shaker and shaken continuously for 5 hours. Turbidity readings are taken at 15 minute intervals.
β-amyloid aggregation in the absence of any modulators results in enhanced turbidity of the natural β-AP solution (i.e., an increase in the apparent absorbance at 405 nm over time).
Accordingly a fold increase in lag time of 1.0 indicates no change in lag time, whereas numbers >1.0 indicate an increase in lag time. The “% inhibition of plateau”, which is a measure of the ability of the compound to decrease the total amount of aggregation, refers to the reduction of the final turbidity in the presence of the test compound expressed as a percent of the control without the test compound.

Aβ1-40 [2] = target: T1, Aβ1-40; assay: Seeded extension assay (thioflavin T fluorescence); format: biochemical; details: Table V; 25 mole % inhibitor
Protocol: The seeded extension assay can be employed to measure the rate of Aβ fiber formed in a solution of Aβ monomer following addition of polymeric Aβ fiber “seed”. The ability of test compounds to prevent further deposition of monomeric Aβ to previously deposited amyloid is determined using a direct indicator of β-sheet formation using fluorescence. In contrast with the nucleation assay, the addition of seed provides immediate nucleation and continued growth of preformed fibrils without the need for continuous mixing, and thus results in the absence of a lag time before polymerization starts. Since this assay uses static polymerization conditions, the activity of positive compounds in the nucleation assay can be confirmed in this second assay under different conditions and with an additional probe of amyloid structure.
In the seeded extension assay, monomeric Aβ140 is incubated in the presence of a “seed” nucleus (approximately ten mole percent of Aβ that has been previously allowed to polymerize under controlled static conditions). Samples of the solution are then diluted in thioflavin T (Th-T). The polymer-specific association of Th-T with Aβ produces a fluorescent complex that allows the measurement of the extent of fibril formation (Levine, H. (1993) Protein Science 2:404-410). In particular, association of Th-T with aggregated β-AP, but not monomeric or loosely associated β-AP, gives rise to a new excitation (ex) maximum at 450 nm and an enhanced emission (em) at 482 nm, compared to the 385 nm (ex) and 445 nm (em) for the free dye. Small aliquots of the polymerization mixture contain sufficient fibril to be mixed with Th-T to allow the monitoring of the reaction mixture by repeated sampling. A linear growth curve is observed in the presence of excess monomer. The formation of thioflavin T responsive β-sheet fibrils parallels the increase in turbidity observed using the nucleation assay.
To prepare the stock seed, 1 ml of the Aβ monomer preparation, is incubated for approximately 8 days at 37° C. and sheared sequentially through an 18, 23, 26 and 30 gauge needle 25, 25, 50, and 100 times respectively. 2 μl samples of the sheared material is taken for fluorescence measurements after every 50 passes through the 30 gauge needle until the fluorescence units (FU) plateau (approx. 100-150×). Test compounds are prepared by dissolving an appropriate amount of test compound in 1×PBS to a final concentration of 1 mM (10× stock). If insoluble, the compound is dissolved in 1/10 volume of DMSO and diluted in 1×PBS to 1 mM. A further 1/10 dilution is also prepared to test each candidate at both 100 μM and 10 μM.
To perform the seeded extension assay, each sample is set up with 50 μl of 200 μM monomer, 125 FU sheared seed (a variable quantity dependent on the batch of seed, routinely 3-6 μl) and 10 μl of 10× modulator solution. The sample volume is then adjusted to a final volume of 100 μl with 1×PBS. Two concentrations of each modulator typically are tested: 100 μM and 10 μM, equivalent to a 1:1 and a 1:10 molar ratio of monomer to modulator. The controls include an unseeded reaction to confirm that the fresh monomer contains no seed, and a seeded reaction in the absence of any modulators, as a reference to compare against candidate modulators. The assay is incubated at 37° C. for 6 h, taking 2 μl samples hourly for fluorescence measurements. To measure fluorescence, a 2 μl sample of Aβ is added to 400 μl of Thioflavin-T solution (50 mM Potassium Phosphate […] pH 7.5). The samples are vortexed and the fluorescence is read in a 0.5 ml micro quartz cuvette at EX 450 nm and EM 482 nm (Hitachi 4500 Fluorimeter).

[3] = 100 mole % inhibitor relative to Aβ1-40

T1 sequence (P05067 672-711): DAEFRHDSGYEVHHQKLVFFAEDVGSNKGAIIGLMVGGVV

Compound	ΔLag (ratio of lag time with test compound to lag time of control) (Aβ1-40 [1]; [3])	% Inucl'n (percent reduction in maximum observed turbidity) (Aβ1-40 [1]; 100 mole % inhibitor) [%]	% Iext'n (percent reduction of thioflavin-T fluorescence) (Aβ1-40 [2]) [%]	other results
CC(C)C[C@H](NC(=O)[C@H](CCCCN)NC(=O)[C@H](CCC(N)=O)NC(=O)[C@H](Cc1c[nH]cn1)NC(=O)[C@H](Cc1c[nH]cn1)NC(=O)[C@@H](NC(=O)[C@H](CCC(=O)O)NC(=O)[C@H](Cc1ccc(O)cc1)NC(=O)CNC(=O)[C@H](CO)NC(=O)[C@H](CC(=O)O)NC(=O)[C@H](Cc1c[nH]cn1)NC(=O)CC[C@@H](C)[C@H]1CC[C@H]2[C@@H]3[C@H](O)C[C@@H]4C[C@H](O)CC[C@]4(C)[C@H]3C[C@H](O)[C@]12C)C(C)C)C(=O)N[C@H](C(=O)N[C@@H](Cc1ccccc1)C(=O)N[C@@H](Cc1ccccc1)C(=O)O)C(C)C [PPI-264, cholyl-Aβ6-20] (Cholyl-HDSGYEVHHQKLVFF-OH)	–	–	–	neurotoxicity of Aβ1-40 solution preincubated with modulator (cultured neuronal cells; modulator preincubated with Aβ1-40 monomers, applied to cells 48 hours, MTT): inhibits the neurotoxicity of the Aβ1-40 solution; Fold Increase in Lag Time (Aβ1-40 [1]; Table II, 100 mole % vs 50 μM Aβ1-40): >4.5 fold; Fold Increase in Lag Time (Aβ1-40 [1]; Table III, 10 mole %): 2 fold; Fold Increase in Lag Time (Aβ1-40 [1]; Table III, 100 mole %): >4.5 fold; Fold Increase in Lag Time (Aβ1-40 [1]; Table IV, 10 mole %): 2.0 fold; aggregation of Aβ1-40 (turbidity) (Aβ1-40 [1]; equimolar: Aβ1-40 and modulator both 64 μM, FIG. 4 panel A): effective at inhibiting aggregation of Aβ140
CC(C)C[C@H](NC(=O)[C@H](CCCCN)NC(=O)[C@H](CCC(N)=O)NC(=O)CC[C@@H](C)[C@H]1CC[C@H]2[C@@H]3[C@H](O)C[C@@H]4C[C@H](O)CC[C@]4(C)[C@H]3C[C@H](O)[C@]12C)C(=O)N[C@H](C(=O)N[C@@H](Cc1ccccc1)C(=O)O)C(C)C [PPI-366] (Cholyl-QKLVF-OH)	3.1	–	–	Fold Increase in Lag Time (Aβ1-40 [1]; Table IV, 10 mole %): 1.6 fold; Fold Increase in Lag Time (Aβ1-40 [1]; Table IV, 100 mole %): 3.1 fold; inhibition at 100 mol % (Aβ1-40 [1]; 100 mole % inhibitor): -23%
CC(C)C[C@H](NC(=O)[C@H](CCCCN)NC(=O)CC[C@@H](C)[C@H]1CC[C@H]2[C@@H]3[C@H](O)C[C@@H]4C[C@H](O)CC[C@]4(C)[C@H]3C[C@H](O)[C@]12C)C(=O)N[C@H](C(=O)N[C@@H](Cc1ccccc1)C(=O)N[C@@H](Cc1ccccc1)C(=O)O)[C@@H](C)O [PPI-369] (Cholyl-KLTFF-OH)	1.1	–	–	Fold Increase in Lag Time (Aβ1-40 [1]; Table IV, 100 mole %): ~1 fold; inhibition at 100 mol % (Aβ1-40 [1]; 100 mole % inhibitor): -16%
CC(C)C[C@H](NC(=O)[C@H](CCCCN)NC(=O)CC[C@@H](C)[C@H]1CC[C@H]2[C@@H]3[C@H](O)C[C@@H]4C[C@H](O)CC[C@]4(C)[C@H]3C[C@H](O)[C@]12C)C(=O)N[C@H](C(=O)N[C@@H](C)C(=O)N[C@@H](Cc1ccccc1)C(=O)O)C(C)C [PPI-370, cholyl-Aβ16-20 Phe19->Ala] (Cholyl-KLVAF-OH)	2.6	–	–	Fold Increase in Lag Time (Aβ1-40 [1]; Table IV, 100 mole %): 2.6 fold; inhibition at 100 mol % (Aβ1-40 [1]; 100 mole % inhibitor): 73%
CC(C)C[C@H](NC(=O)[C@H](CCCCN)NC(=O)CCCC[C@@H]1SC[C@@H]2NC(=N)N[C@@H]21)C(=O)N[C@H](C(=O)N[C@@H](Cc1ccccc1)C(=O)N[C@@H](Cc1ccccc1)C(=O)O)C(C)C [PPI-374, iminobiotinyl-Aβ16-20]	1.3	–	–	Fold Increase in Lag Time (Aβ1-40 [1]; Table IV, 100 mole %): 1.3 fold; inhibition at 100 mol % (Aβ1-40 [1]; 100 mole % inhibitor): 86%
CC(C)C[C@H](NC(=O)[C@@H](N)CCCCN)C(=O)N[C@H](C(=O)N[C@@H](Cc1ccccc1)C(=O)N[C@@H](Cc1ccccc1)C(=O)O)C(C)C [PPI-377, Aβ16-20]	–	–	–	inhibition at 100 mol % (Aβ1-40 [1]; 100 mole % inhibitor): 0%
CC(C)C[C@H](N)C(=O)N[C@H](C(=O)N[C@@H](Cc1ccccc1)C(=O)N[C@@H](Cc1ccccc1)C(=O)N[C@@H](C)C(=O)O)C(C)C [PPI-386]	–	15	–	–
CC(C)C[C@H](NC(=O)[C@@H](N)CCCCN)C(=O)N[C@H](C(=O)N[C@@H](Cc1ccccc1)C(=O)N[C@@H](Cc1ccccc1)C(N)=O)C(C)C [PPI-387]	1.3	−9	39	–
CC(C)C[C@H](N)C(=O)N[C@H](C(=O)N[C@@H](Cc1ccccc1)C(=O)N[C@@H](Cc1ccccc1)C(=O)N[C@@H](C)C(N)=O)C(C)C [PPI-405]	1.3	11	70	–
CC(C)C[C@H](NC(=O)OC(C)(C)C)C(=O)N[C@H](C(=O)N[C@@H](Cc1ccccc1)C(=O)N[C@@H](Cc1ccccc1)C(=O)N[C@@H](C)C(=O)O)C(C)C [PPI-435]	–	−5	–	–
PPI-315: CA-HQKLVFF-nh2 (N-terminal CA cap; C-terminal amide)	–	–	–	% Inucl'n (percent reduction in maximum observed turbidity) (Aβ1-40 [1]; 33 mol % inhibitor): 5** %
PPI-380: CA-LVFF-oh	–	–	51	% Inucl'n (percent reduction in maximum observed turbidity) (Aβ1-40 [1]; 33 mol % inhibitor): 72** %; ΔLag (ratio of lag time with test compound to lag time of control) (Aβ1-40 [1]; 33 mole % inhibitor): 1.8
PPI-392: CA-VFFA-oh ({CA}-VFFA-OH; reading uncertain; also: printed as CA-VFFA-oh)	2.0	76	10	–
PPI-393: CA-LVF-oh	1.3	1	0	–
PPI-394: CA-VFF-oh ({CA}-Val-Phe-Phe-OH; reading uncertain; also: printed as CA-VFF-oh)	1.8	55	0	–
PPI-395: CA-FFA-oh ({CA}-Phe-Phe-Ala-OH; reading uncertain; also: printed as CA-FFA-oh)	1.0	51	6	–
PPI-403: h-DDIII(N-Me-Val)DLL(Adp)-HQKLVFF-oh ({H2N-Asp-Asp-Ile-Ile-Ile-NMeV-Asp-Leu-Leu-Adp″}-HQKLVFF-OH)	1.4	−75	–	–
PPI-407: CA-LVFFK-oh	–	–	–	% Inucl'n (percent reduction in maximum observed turbidity) (Aβ1-40 [1]; 33 mol % inhibitor): 100** %
PPI-418: h-(Aic)-LVFFA-oh	–	–	–	% Inucl'n (percent reduction in maximum observed turbidity) (Aβ1-40 [1]; 33 mol % inhibitor): 100** %
PPI-426: CA-FFVLA-oh, rearranged Aβ17-21	–	–	–	delay of the appearance of neurotoxicity relative to control (cultured neuronal cells; compared with delay of polymerization in nucleation assay): coincided with the delay in the time at which polymerization of Aβ began
PPI-429: CA-FFV-oh ({CA}-Phe-Phe-Val-OH; reading uncertain; also: printed as PPI-429: CA-FFV-oh)	2.2	−33	7	–
PPI-430: CA-FFVL-oh ({CA}-FFVL-OH; reading uncertain; also: printed as PPI-430: CA-FFVL-oh)	4.1	33	75	–
PPI-438: CA-GFF-oh ({CA}-Gly-Phe-Phe-OH; reading uncertain; also: printed as PPI-438: CA-GFF-oh)	1.0	0	–	–
